Results from PMC9176655, “Nebulized fusion inhibitory peptide protects cynomolgus macaques from measles virus infection” (Research Square, 2022).

Legend:
[1] = Laser diffraction and nebulizer performance of aerosol from prototype mesh nebulizer; type: physicochemical; settings: 3 ml of 4 mg/ml, mean + SD of four devices
Protocol: The aerodynamic performances of the aerosols generated by the prototype mesh nebulizer were determined by laser diffraction using a Spraytec™ instrument (Malvern Instruments Ltd., Malvern, UK) and the Spraytec inhalation cell (Malvern Instruments Ltd., Malvern, UK) connected to an aspiration carried out by a vacuum pump set to 30–50L/min [69]. The prototype mesh nebulizers (n=4) were loaded with 3 ml of either NaCl 0.9% or the HCR4 peptide (4 mg/ml, dissolved as described above) and then connected to the inhalation cell. Nebulization duration was notified at the end of the complete aerosolization of the loaded 3 ml. Diffraction data and volume distribution were automatically registered by the Spraytec software.
The output of nebulizer was determined by the difference between the weight of the nebulizer before and after nebulization and was expressed in percentage of the loaded volume. The output rate of each nebulizer (in ml/min) was then determined as the ratio between the output and the nebulization duration. At least, the residual volume corresponding to the volume of liquid remaining in the reservoir at the end of the nebulization was also determined by weighting the nebulizer before loading it and after nebulization.
25 Table S1. […]
28 1 VMD for Volume Median Diameter, presents the mean size of generated aerosols, measured by […]

[2] = Solubility of peptide for nebulization; type: physicochemical; settings: dissolved in filtered Milli-Q water to 4 mg/ml, pH adjusted to 7, HEPES buffer
MeV [3] = settings: intranasal administration, cited from earlier work
Excerpt: MeV uses several receptors to infect target cells. […] Infection is initiat ...

MeV [4] = settings: cell culture and organotypic brain cultures; cited from earlier work
MeV [5] = experiment: Plaque reduction assay on Vero-hSLAM cells; settings: prototype mesh nebulizer
MeV IC323-eGFP [6] = experiment: Nebulized peptide in MeV-infected cynomolgus macaques; settings: absence of fluorescent rash, PBMC infection, viremia, viral shedding, MeV-specific immune response
MeV IC323-eGFP [7] = experiment: Serial viral passaging in presence of peptide, sequencing for escape variants; settings: 1μM peptide added after infection, 8 serial passages on Vero SLAM cells, 100 PFU per passage, sequencing of viral RNA
[8] = cynomolgus monkey, in vivo

Deposition in macaque, Lungs [8]	Structure (SMILES)	VMD ([1]; laser diffraction (Spraytec))	< 5µm ([1]; percentage of particles smaller than 5 µm)	Solubility [2]	Survival of mice (MeV [3]; humanized transgenic mouse models of lethal measles disease)	Viral titer in cotton rat lungs (MeV [3])	Inhibition of the fusion process (MeV [4])	Antiviral activity after versus before nebulization (MeV [5])	Development of MeV infection (MeV IC323-eGFP [6])	Mutations in MeV F after 8th passage (MeV IC323-eGFP [7])
–	CC[C@H](C)[C@H](NC(=O)[C@H](C)NC(=O)[C@H](CC(N)=O)NC(=O)CNC(=O)[C@H](CC(C)C)NC(=O)[C@H](CC(N)=O)NC(=O)[C@@H](NC(=O)CNC(=O)[C@@H](NC(=O)[C@H](CC(=O)O)NC(=O)[C@H](CC(C)C)NC(=O)[C@H](CCCNC(=N)N)NC(=O)[C@H](CCC(=O)O)NC(=O)[C@H](CC(C)C)NC(=O)[C@H](CO)NC(=O)[C@@H](NC(=O)[C@@H]1CCCN1C(=O)[C@@H]1CCCN1)[C@@H](C)CC)C(C)C)[C@@H](C)O)C(=O)N[C@@H](C)C(=O)N[C@@H](CCCCN)C(=O)N[C@@H](CC(C)C)C(=O)N[C@@H](CCC(=O)O)C(=O)N[C@@H](CC(=O)O)C(=O)N[C@@H](C)C(=O)N[C@@H](CCCCN)C(=O)N[C@@H](CCC(=O)O)C(=O)N[C@@H](CC(C)C)C(=O)N[C@@H](CC(C)C)C(=O)N[C@@H](CCC(=O)O)C(=O)N[C@@H](CO)C(=O)N[C@@H](CO)C(=O)N[C@@H](CC(=O)O)C(=O)N[C@@H](CCC(N)=O)C(=O)N[C@H](C(=O)N[C@@H](CC(C)C)C(=O)N[C@@H](CCCNC(=N)N)C(=O)NCC(=O)N[C@@H](CO)C(=O)NCC(=O)N[C@@H](CO)C(=O)NCC(=O)N[C@@H](CSC1CC(=O)N(CCCC(=O)NCCOCCOCCOCCOCCC(=O)NCCN(CCNC(=O)CCOCCOCCOCCOCCNC(=O)CCCN2C(=O)CC(SC[C@H](NC(=O)CNC(=O)[C@H](CO)NC(=O)CNC(=O)[C@H](CO)NC(=O)CNC(=O)[C@H](CCCNC(=N)N)NC(=O)[C@H](CC(C)C)NC(=O)[C@@H](NC(=O)[C@H](CCC(N)=O)NC(=O)[C@H](CC(=O)O)NC(=O)[C@H](CO)NC(=O)[C@H](CO)NC(=O)[C@H](CCC(=O)O)NC(=O)[C@H](CC(C)C)NC(=O)[C@H](CC(C)C)NC(=O)[C@H](CCC(=O)O)NC(=O)[C@H](CCCCN)NC(=O)[C@H](C)NC(=O)[C@H](CC(=O)O)NC(=O)[C@H](CCC(=O)O)NC(=O)[C@H](CC(C)C)NC(=O)[C@H](CCCCN)NC(=O)[C@H](C)NC(=O)[C@@H](NC(=O)[C@H](C)NC(=O)[C@H](CC(N)=O)NC(=O)CNC(=O)[C@H](CC(C)C)NC(=O)[C@H](CC(N)=O)NC(=O)[C@@H](NC(=O)CNC(=O)[C@@H](NC(=O)[C@H](CC(=O)O)NC(=O)[C@H](CC(C)C)NC(=O)[C@H](CCCNC(=N)N)NC(=O)[C@H](CCC(=O)O)NC(=O)[C@H](CC(C)C)NC(=O)[C@H](CO)NC(=O)[C@@H](NC(=O)[C@@H]3CCCN3C(=O)[C@@H]3CCCN3)[C@@H](C)CC)C(C)C)[C@@H](C)O)[C@@H](C)CC)[C@@H](C)CC)C(=O)O)C2=O)CCO[C@H]2CC[C@@]3(C)C(=CC[C@H]4[C@@H]5CC[C@H]([C@H](C)CCCC(C)C)[C@@]5(C)CC[C@@H]43)C2)C1=O)C(=O)O)[C@@H](C)CC (stereo partly shown) [HRC4]	4 μm	Approximately 58%	soluble in water	significant increase in survival of mice	reduction of the viral titer in cotton rat lungs	inhibited the fusion process	did not cause any loss of activity	abrogated the development of MeV infection in two out of three animals	no mutations
11.4 +/- 3.1%	O=C([O-])CN(CCN(CC(=O)[O-])CC(=O)[O-])CCN(CC(=O)[O-])CC(=O)[O-].[99Tc+4] [99mTC-DTPA, DTPA radiolabeled with technetium 99m]	–	–	–	–	–	–	–	–	–
